Series [1] can be described thus: Accelerated aging of curatives in polyol mix with water and temperature. The format is physicochemical. To be noted: curative 2.0 parts. The text has this: [Note: polyols supplied to Shepherd as their 4-component polyol systems by Huntsman.] BiCAT 8108 is bismuth neodecanoate, 20 wt % bismuth.
A short description of series [2]: Moisture stability of curative in polyol side of two-part TDI spray-foam system. In kind it is physicochemical. How it is done:
BiCAT 8842 was used in a two-part polyurethane system (TDI) for spray-foam applications. The BiCAT 8842 was added at 0.125 wt % to the polyol side (B-part). In addition, the polyol side contained 2.5 wt % water. […] The same dosage of stannous octoate curative was added to the TDI-tin-based control formulation.

Where [3] appears, read: DAY 1, DI water 2.5 parts, oven 130° F.
The mark [4] stands for this setting: DAY 2, DI water 2.5 parts, oven 130° F.
[5] abbreviates: DAY 3, DI water 2.5 parts, oven 130° F.
Where [6] appears, read: DAY 4, DI water 2.5 parts, oven 160° F.
The mark [7] stands for this setting: DAY 5, DI water 4.0 parts, oven 160° F.
Setting [8] is: DAY 6, DI water 4.0 parts, oven 160° F.

From patent US10414891B2, “Polyurethane curatives” (The Shepherd Chemical Company, priority 2015, dated 2019) come the findings set out here.

In the case of “bismuth neodecanoate [BiCAT 8108, reference compound]”, the Stability result is “transparent” in series [1] (setting [3]); “transparent” in series [1] (setting [4]); “transparent” in series [1] (setting [5]); “transparent” in series [1] (setting [6]); “very sl. hazy” in series [1] (setting [7]); “opaque; ppt formation” in series [1] (setting [8]).

For “bismuth neodecanoate [reference compound]”, the “time until formulation began to turn white (bismuth hydrolysis to the hydroxide)” value in series [2] (same use level, polyol side containing 2.5 wt % water) is approximately 14 min.

Turning to “bismuth, 1,1′,1″,1′″-(1,2-ethanediyldinitrilo)tetrakis[2-propanol] neodecanoate complexes [Curative 8840]”, the Stability result in series [1] (setting [3]), in series [1] (setting [4]), in series [1] (setting [5]), in series [1] (setting [6]), in series [1] (setting [7]) and in series [1] (setting [8]) was “transparent” each time.

“bismuth, 2,2′,2″,2′″-(1,2-ethanediyldinitrilo)tetrakis[ethanol] neodecanoate complexes [Curative 8842]”: in series [2] (0.125 wt % in polyol side (B-part) containing 2.5 wt % water), the “stability in the presence of moisture” value was “remained stable for many weeks”. Besides, the Stability entry in series [1] (setting [3]), in series [1] (setting [4]), in series [1] (setting [5]), in series [1] (setting [6]), in series [1] (setting [7]) and in series [1] (setting [8]) was “transparent” throughout.
